This is an account of results in US11860166B2 (KOREA INSTITUTE OF SCIENCE AND TECHNOLOGY, priority 2019, dated 2024).

In the test the test system is dopamine receptor D1. Conditions: co-imaging, quinpirole first, then SKF38393, FIG. 5A.

Procedure: To minimize a photobleaching phenomenon, the live fluorescence microscope was set. When stimulated with light at a wavelength of 560 nm in the live fluorescence microscope, intensity at a cpRFP fluorescence wavelength of 610 nm was measured.
To induce fluorescence intensity suitable for experiments, 50 msec exposure and ND16 intensity were maintained. The fluorescence cycle was performed for total 10 minutes by measuring cpRFP images for 1 minute using the fluorescence microscope.
The saved images were analyzed using an NIS program (Nikon). cpRFP fluorescence intensity of the entire single cells in the regions of interest (ROI) was analyzed in the NIS program.

On to `Oc1cc2c(cc1O)C(c1ccccc1)CNCC2` (stereo not shown) [SKF38393], for which the “fluorescence of red biosensor DRD1 Red 1.3 on ligand treatment” value is given as “increase in fluorescence by selective response”.
